Here are results for two compounds from PMC10716126, “Enzyme mechanistic studies of NMA1982, a protein tyrosine phosphatase and potential virulence factor in Neisseria meningitidis” (Scientific Reports, 2023).

Test [1] deals with T1, NMA1982 (Neisseria meningitidis, UniProt A1KVD0).
T1 construct: gene NMC1647

In test [2] the target is T1, NMA1982. The source holds these as a separate data set.

T1 sequence (A1KVD0 entry or part of it): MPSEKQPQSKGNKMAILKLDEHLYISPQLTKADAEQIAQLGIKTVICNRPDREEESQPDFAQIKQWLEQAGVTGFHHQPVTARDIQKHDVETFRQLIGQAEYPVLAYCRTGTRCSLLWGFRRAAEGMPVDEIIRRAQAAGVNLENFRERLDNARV

On to `Cc1cc(=O)oc2c(F)c(OP(=O)(O)O)c(F)cc12` [DiFMUP], for which, at NMA1982 [1], the Km (commonly the concentration of substrate that gives half-maximal velocity) came out at 35 µM.

Turning to `[O]=[V]([OH])([OH])[OH]` [sodium orthovanadate], inhibition against NMA1982 [2] was half-maximal at 161 µM (IC50).
